The text below walks through data of ChEMBL document CHEMBL1154896, “Antineoplastic agents. 573. isolation and structure of papilistatin from the papilionid butterfly Byasa polyeuctes termessa” (2010).

≈ marks a conversion by molar mass, not a printed value.

Common to all, as to assay type: functional
The test system of one assay is Micrococcus luteus. Put plainly: Antibacterial activity against Micrococcus luteus Presque Isle 456.
In the next assay the test system is Neisseria gonorrhoeae. Put plainly: Antibacterial activity against Neisseria gonorrheae ATCC 49226.
The next assay has as its system Streptococcus pneumoniae. Put plainly: Antibacterial activity against Streptococcus pneumoniae ATCC 6303.
The test system of a further assay is BXPC-3. Put plainly: Cytotoxicity against human BxPC3 cells after 48 hrs by SRB assay. To be noted: BXPC-3, 48 h.
A further assay has as its system Enterococcus faecalis. Kind of assay: Antibacterial activity against Enterococcus faecalis ATCC 29212.
The test system of another assay is Staphylococcus aureus. Kind of assay: Antibacterial activity against Staphylococcus aureus ATCC 29213.
The subject of the next assay is KM-20L2. Kind of assay: Cytotoxicity against human KM20L2 cells after 48 hrs by SRB assay. To be noted: KM-20L2, 48 h.

With `COc1cccc2c1cc(C(=O)O)c1c(C(=O)O)cc3c(c12)OCO3` [PAPILISTATIN], the MIC in the assay on Micrococcus luteus was 16 µg/mL (≈ 47 µM); against Neisseria gonorrhoeae, 8 µg/mL (≈ 23.5 µM); against Streptococcus pneumoniae, 32 µg/mL (≈ 94 µM); against Enterococcus faecalis it was 16 µg/mL (≈ 47 µM); against Staphylococcus aureus, 64 µg/mL (≈ 188 µM). In addition, the GI50 with BXPC-3 came to 0.093 µg/mL (≈ 0.273 µM); in the assay on KM-20L2, 0.096 µg/mL (≈ 0.282 µM).
